# Measured values: US20240082228A1, “SARS-COV-2 THERAPEUTICS” (priority 2021, published 2024)
# Experiments:
# SARS-CoV-2 = assay type: cell-based; settings: HEK293T cells stably expressing ACE2
# HEK293T-ACE2 cells = settings: up to 10 mM compound
# [1] = target: benzodiazepine binding site of human GABAA receptors containing either an α1, α2, α3 or α5 subunit; settings: read-out: affinity; cited from earlier work
# GABAA receptors = settings: cited from earlier work
SMILES,antiviral activity (SARS-CoV-2),cytotoxicity (HEK293T-ACE2 cells),Ki [1],"efficacy at α1-, α2- and α5-containing GABAA receptors (GABAA receptors; α1-, α2- and α5-containing)",efficacy at receptors containing an α3 subunit (GABAA receptors; α3 subunit)
CN[C@@H](C)C(=O)N[C@H](C(=O)N1CCC[C@H]1C(=O)N[C@H]1c2ccccc2C[C@H]1OCC#CC#CCO[C@@H]1Cc2ccccc2[C@@H]1NC(=O)[C@@H]1CCCN1C(=O)[C@@H](NC(=O)[C@H](C)NC)C1CCCCC1)C1CCCCC1 [AZD5582],excellent activity,no observable cytotoxicity,,,
CN[C@@H](C)C(=O)N[C@H]1CCS[C@H]2CC(C)(C)[C@@H](C(=O)N[C@H]3c4ccccc4C[C@H]3OCC#CC#CCO[C@@H]3Cc4ccccc4[C@@H]3NC(=O)[C@H]3N4C(=O)[C@@H](NC(=O)[C@H](C)NC)CCS[C@H]4CC3(C)C)N2C1=O [Ciapavir],excellent activity,no observable cytotoxicity,,,
CC(C)CCC(=O)CC1c2ccccc2C(=O)N1c1ccc2ccc(Cl)nc2n1 (stereo not shown) [Pagoclone],,,0.7 to 9.1 nM,partial agonist,full agonist
